Data as given in publication PMC6365485 (British Journal of Pharmacology, 2019).

Legend:
[1] = target: T1, human recombinant DP1 receptor (Homo sapiens, UniProt Q13258); assay: [3H]PGD2 displacement, membranes; type: binding
T1 sequence (Q13258 1-359): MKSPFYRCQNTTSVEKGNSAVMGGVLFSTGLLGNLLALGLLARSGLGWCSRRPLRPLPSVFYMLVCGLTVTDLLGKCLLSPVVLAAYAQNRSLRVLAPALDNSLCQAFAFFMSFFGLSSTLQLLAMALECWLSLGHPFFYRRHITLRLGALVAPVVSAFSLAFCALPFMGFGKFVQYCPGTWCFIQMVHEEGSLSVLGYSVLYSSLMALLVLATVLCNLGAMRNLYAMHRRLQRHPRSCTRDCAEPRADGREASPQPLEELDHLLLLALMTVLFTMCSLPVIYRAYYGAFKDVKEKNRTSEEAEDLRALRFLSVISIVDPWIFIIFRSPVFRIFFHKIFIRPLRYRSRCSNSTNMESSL

[2] = target: T2, human recombinant EP1 receptor (Homo sapiens, UniProt P34995); assay: [3H]PGE2 displacement, membranes; type: binding
T2 sequence (P34995 1-402): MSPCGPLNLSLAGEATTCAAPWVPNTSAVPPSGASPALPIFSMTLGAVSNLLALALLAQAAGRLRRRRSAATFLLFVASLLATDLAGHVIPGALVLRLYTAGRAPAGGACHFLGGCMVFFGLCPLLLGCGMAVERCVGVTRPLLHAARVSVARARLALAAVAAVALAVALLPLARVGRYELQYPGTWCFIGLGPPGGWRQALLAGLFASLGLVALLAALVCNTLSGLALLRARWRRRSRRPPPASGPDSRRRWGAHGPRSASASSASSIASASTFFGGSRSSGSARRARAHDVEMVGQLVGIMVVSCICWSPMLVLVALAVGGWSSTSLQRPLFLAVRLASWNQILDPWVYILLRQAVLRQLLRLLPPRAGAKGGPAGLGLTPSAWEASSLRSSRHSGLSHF

SMILES	Ki [1] [nM]	Ki [2] [nM]
CCCCC[C@H](O)/C=C/[C@H]1C(=O)C[C@H](O)[C@@H]1C/C=C\CCCC(=O)O [PGD2]	2.51	
CCCCC[C@H](O)/C=C/[C@H]1[C@H](O)CC(=O)[C@@H]1C/C=C\CCCC(=O)O [PGE2]		50.1
